# The RepoRT retention time repository
# Experiment: HILIC, Waters ACQUITY UPLC BEH Amide, 100 × 2.1 mm, 1.7 µm; A: water + 0.125% formic acid + 10 mM ammonium formate; B: 5% water + 95% acetonitrile + 0.125% formic acid + 10 mM ammonium formate; gradient (min/%B) 0/100 2/100 7.7/70 9.5/40 10.25/30 12.75/100 17/100
# Conditions: stereoisomer not certain
row,Structure (SMILES),LC retention time
1,O=c1c(-c2ccccc2)c1-c1ccccc1 [Diphenylcyclopropenone],1.01 min
2,CN(CCOc1ccc(NS(C)(=O)=O)cc1)CCc1ccc(NS(C)(=O)=O)cc1 [Dofetilide],3.38 min
3,COc1cc2c(cc1OC)C(=O)C(CC1CCN(Cc3ccccc3)CC1)C2 (stereo not drawn) [Donepezil],2.44 min
4,NCCc1ccc(O)c(O)c1 [Dopamine],6.4 min
5,CN(C)CCC=C1c2ccccc2COc2ccccc21 [Doxepin],2.26 min
6,CC=C1N(C)C(C)CC1(c1ccccc1)c1ccccc1 (stereo not drawn) [EDDP],1.9 min
7,COC(=O)C1C(O)CC2CCC1N2C (stereo not drawn) [Ecgonine methylester],4.18 min
8,CN1C2CCC1C(C(=O)O)C(O)C2 (stereo not drawn) [Ecgonine],7.61 min
9,O=C1Nc2ccc(Cl)cc2C(C#CC2CC2)(C(F)(F)F)O1 (stereo not drawn) [Efavirenz],0.98 min
10,CC(NC(CCc1ccccc1)C(=O)O)C(=O)N1CCCC1C(=O)O (stereo not drawn) [Enalaprilat],7.07 min
11,CCN1CCN(c2cc3c(cc2F)c(=O)c(C(=O)O)cn3C2CC2)CC1 [Enrofloxacin],3.31 min
12,Oc1cc(O)c2c(c1)OC(c1cc(O)c(O)c(O)c1)C(O)C2 (stereo not drawn) [Epigallocatechin],10.2 min
13,Oc1ccc(C2COc3cc(O)ccc3C2)cc1 (stereo not drawn) [Equol],1.19 min
14,CCCCCCCCC=CCCCCCCCCCCCC(N)=O [Erucamide],1.06 min
15,C#CC1(O)CCC2C3CCc4cc(O)ccc4C3CCC21C (stereo not drawn) [Ethynylestradiol],0.99 min
16,CCOC(=O)c1cncn1C(C)c1ccccc1 (stereo not drawn) [Etomidate],0.98 min
17,C=C1CC2C(CCC3(C)C(=O)CCC23)C2(C)C=CC(=O)C=C12 (stereo not drawn) [Exemestane],0.98 min
18,O=C1C(CCC(O)c2ccc(F)cc2)C(c2ccc(O)cc2)N1c1ccc(F)cc1 (stereo not drawn) [Ezetimibe],1.03 min
19,NC(N)=Nc1nc(CSCCC(N)=NS(N)(=O)=O)cs1 [Famotidine],5.59 min
20,NC(=O)OCC(COC(N)=O)c1ccccc1 [Felbamate],1.2 min
21,CCNC(C)Cc1cccc(C(F)(F)F)c1 (stereo not drawn) [Fenfluramine],2.33 min
22,Oc1ccc(C2CNCCc3c2cc(O)c(O)c3Cl)cc1 (stereo not drawn) [Fenoldopam],5.68 min
23,COc1cc(/C=C/C(=O)O)ccc1O [Ferulic acid],1.36 min

row,Structure (SMILES),LC retention time
1,CC(C)(C)NC(=O)C1CCC2C3CCC4NC(=O)C=CC4(C)C3CCC12C (stereo not drawn) [Finasteride],1.17 min
2,CCOC(=O)c1ncn2c1CN(C)C(=O)c1cc(F)ccc1-2 [Flumazenil],1.08 min
3,CN1C(=O)CN=C(c2ccccc2F)c2cc([N+](=O)[O-])ccc21 [Flunitrazepam],1.05 min
4,CCN(CC)CCN1C(=O)CN=C(c2ccccc2F)c2cc(Cl)ccc21 [Flurazepam],2.41 min
5,COc1ccc(-c2coc3cc(O)ccc3c2=O)cc1 [Formononetine],1.18 min
6,COc1ccc(CC(C)NCC(O)c2ccc(O)c(NC=O)c2)cc1 (stereo not drawn) [Formoterol],5.18 min
7,CC(=O)OC1CC(C)(C)C(=C=CC(C)=CC=CC(C)=CC=CC=C(C)C=CC=C(C)C(=O)CC23OC2(C)CC(O)CC3(C)C)C(C)(O)C1 (stereo not drawn) [Fucoxanthin],1.07 min
8,CCOC(=O)c1ccc(OC(=O)CCCCCN=C(N)N)cc1 [Gabexate],3.45 min
9,NC1C(O)OC(CO)C(O)C1O (stereo not drawn) [Galactosamine],8.44 min
10,COc1ccc2c3c1OC1CC(O)C=CC31CCN(C)C2 (stereo not drawn) [Galanthamine],4.62 min
11,O=C(O)c1cc(O)ccc1O [Gentisinic acid],3.18 min
12,NC(CCC(=O)O)C(=O)NC(Cc1ccccc1)C(=O)O (stereo not drawn) [Glu-Phe],8.2 min
13,O=C1OC(CO)C(O)C(O)C1O (stereo not drawn) [Gluconolactone],8.15 min
14,O=P(O)(O)OC1OC(CO)C(O)C(O)C1O (stereo not drawn) [Glucose-1-phosphate],9.61 min
15,NC(CCC(=O)O)C(=O)O (stereo not drawn) [Glutamic acid],8.85 min
16,NCC(=O)NCC(=O)NCC(=O)O [Gly-Gly-Gly],9.18 min
17,CCC(C)C(NC(=O)CN)C(=O)O (stereo not drawn) [Gly-Ile],7.67 min
18,C[N+](C)(C)CCOP(=O)([O-])OCC(O)CO (stereo not drawn) [Glycerophosphocholine],8.67 min
19,COc1cc2c(=O)c(-c3ccc(O)cc3)coc2cc1O [Glycitein],1.32 min
20,CC(C)CC(NC(=O)CN)C(=O)O (stereo not drawn) [Glycyl-leucine],8.14 min
21,CC(C)CC(NC(=O)C(COC(C)(C)C)NC(=O)C(Cc1ccc(O)cc1)NC(=O)C(CO)NC(=O)C(Cc1c[nH]c2ccccc12)NC(=O)C(Cc1cnc[nH]1)NC(=O)C1CCC(=O)N1)C(=O)NC(CCCN=C(N)N)C(=O)N1CCCC1C(=O)NNC(N)=O (stereo not drawn) [Goserelin],7.83 min
22,NC(N)=NCC(=O)O [Guanidinoacetic acid],8.16 min
23,Nc1nc2nc[nH]c2c(=O)[nH]1 [Guanine],6.4 min

# The remaining lines, values ahead:
row,LC retention time,Structure (SMILES)
1,0.93 min,CCN(CC)C(=S)SSC(=S)N(CC)CC [Disulfiram]
2,1.34 min,CC(=O)OC12COC1CC(O)C1(C)C(=O)C(O)C3=C(C)C(OC(=O)C(O)C(NC(=O)OC(C)(C)C)c4ccccc4)CC(O)(C(OC(=O)c4ccccc4)C21)C3(C)C (stereo not drawn) [Docetaxel]
3,1.9 min,O=C(OC1CC2CC3CC(C1)N2CC3=O)c1c[nH]c2ccccc12 (stereo not drawn) [Dolasetron]
4,1.64 min,CCN1CC(CCN2CCOCC2)C(c2ccccc2)(c2ccccc2)C1=O (stereo not drawn) [Doxapram]
5,2.45 min,CN(C)CCOC(C)(c1ccccc1)c1ccccn1 (stereo not drawn) [Doxylamine]
6,3.48 min,O=C(CCCN1CC=C(n2c(=O)[nH]c3ccccc32)CC1)c1ccc(F)cc1 [Droperidol]
7,2.6 min,CNCCC(Oc1cccc2ccccc12)c1cccs1 (stereo not drawn) [Duloxetine]
8,1.43 min,CC(C)C(C)C=CC(C)C1CCC2C3=CC=C4CC(O)CCC4(C)C3CCC21C (stereo not drawn) [Ergosterol]
9,7.74 min,C[N+](C)(C)C(Cc1c[nH]c(=S)[nH]1)C(=O)[O-] (stereo not drawn) [Ergothioneine]
10,3.13 min,COC(=O)CCc1ccc(OCC(O)CNC(C)C)cc1 (stereo not drawn) [Esmolol]
11,1.35 min,COc1ccc2nc(S(=O)Cc3ncc(C)c(OC)c3C)[nH]c2c1 (stereo not drawn) [Esomeprazole]
12,7.15 min,NCCO [Ethanolamine]
13,4.88 min,CCCC(=O)OCC [Ethylbutanoate]
14,1.3 min,COc1cc(C2c3cc4c(cc3C(OC3OC5COC(C)OC5C(O)C3O)C3COC(=O)C23)OCO4)cc(OC)c1O (stereo not drawn) [Etoposide]
15,1.38 min,CC(=O)OCC(CCn1cnc2cnc(N)nc21)COC(C)=O [Famciclovir]
16,1.01 min,CCOC(=O)C(C)Oc1ccc(Oc2nc3ccc(Cl)cc3o2)cc1 (stereo not drawn) [Fenoxaprop-P-ethyl]
17,1.16 min,COC(=O)Nc1nc2ccc(C(=O)c3ccc(F)cc3)cc2[nH]1 [Flubendazole]
18,6.66 min,c1ccc2c(c1)Cc1ccccc1-2 [Fluorene]
19,2.3 min,CN1CCN(C2=Nc3cc(F)ccc3Cc3ccccc32)CC1 [Fluperlapine]
20,2.74 min,OCCN1CCN(CCCN2c3ccccc3Sc3ccc(C(F)(F)F)cc32)CC1 [Fluphenazine]
21,2.93 min,COCCCCC(=NOCCN)c1ccc(C(F)(F)F)cc1 [Fluvoxamine]

row,LC retention time,Structure (SMILES)
1,7.92 min,Nc1nc2c(c(=O)[nH]1)N(C=O)C(CNc1ccc(C(=O)NC(CCC(=O)O)C(=O)O)cc1)CN2 (stereo not drawn) [Folinic acid]
2,4.53 min,COC(=O)C1=COC(OC2OC(CO)C(O)C(O)C2O)C2C(CO)=CCC12 (stereo not drawn) [Geniposide]
3,1.3 min,CC(C)=CCCC(C)=CC(=O)O [Geranic acid]
4,1.05 min,CCC1=C(C)CN(C(=O)NCCc2ccc(S(=O)(=O)NC(=O)NC3CCC(C)CC3)cc2)C1=O (stereo not drawn) [Glimepiride]
5,9.9 min,NC(N)=NCCCC(NC(=O)C(N)CCC(=O)O)C(=O)O (stereo not drawn) [Glu-Arg]
6,9.6 min,NC(=O)CCC(NC(=O)C(N)CCC(=O)O)C(=O)O (stereo not drawn) [Glu-Gln]
7,9.9 min,NCCCCC(NC(=O)C(N)CCC(=O)O)C(=O)O (stereo not drawn) [Glu-Lys]
8,9.44 min,CC(O)C(NC(=O)C(N)CCC(=O)O)C(=O)O (stereo not drawn) [Glu-Thr]
9,7.66 min,CC(C)C(NC(=O)C(N)CCC(=O)O)C(=O)NC(Cc1ccccc1)C(=O)O (stereo not drawn) [Glu-Val-Phe]
10,7.37 min,CS(=O)CCCCC(=NOS(=O)(=O)O)SC1OC(CO)C(O)C(O)C1O (stereo not drawn) [Glucoraphanin]
11,10.1 min,NC1C(O)OC(COP(=O)(O)O)C(O)C1O (stereo not drawn) [Glucosamine-6-phosphate]
12,9.86 min,O=P(O)(O)OCC1OC(O)C(O)C(O)C1O (stereo not drawn) [Glucose-6-phosphate]
13,1.84 min,O=CC(O)C(O)C(O)C(O)CO (stereo not drawn) [Glucose]
14,10.2 min,NC(CCC(=O)NC(CSSCC(NC(=O)CCC(N)C(=O)O)C(=O)NCC(=O)O)C(=O)NCC(=O)O)C(=O)O (stereo not drawn) [Glutathione (oxidized)]
15,9.07 min,NC(CCC(=O)NC(CS)C(=O)NCC(=O)O)C(=O)O (stereo not drawn) [Glutathione (reduced)]
16,8.62 min,NCC(=O)N1CCCC1C(=O)O (stereo not drawn) [Gly-Pro]
17,7.89 min,CC(NC(=O)C(Cc1ccc(O)cc1)NC(=O)CN)C(=O)O (stereo not drawn) [Gly-Tyr-Ala]
18,8.07 min,NCC(=O)NC(Cc1ccc(O)cc1)C(=O)O (stereo not drawn) [Gly-Tyr]
19,8.05 min,CC(C)C(NC(=O)CN)C(=O)O (stereo not drawn) [Gly-val]
20,8.33 min,NCC(=O)O [Glycine]
21,4.12 min,CN1C2CCCC1CC(NC(=O)c1nn(C)c3ccccc13)C2 (stereo not drawn) [Granisetron]
